Test system: bacteria isolated from a industrial cooling water sample
Assay: Time-kill test in cooling water samples (MPN serial dilution)
Assay type: cell-based
Conditions: 37° C., start about 5×10^7 CFU/ml
Description: In this example, tributyl tetradecyl phosphonium chloride (TTPC), tetrakis(hydroxymethyl)phosphonium sulfate (THPS), and combinations of TTPC and THPS are tested at different concentrations for efficacy against bacteria isolated from a industrial cooling water sample. Water samples containing a final bacterial concentration of about 5×10^7 CFU/ml are used. Biocide solutions are prepared and diluted in sterile deionized water and used within 2 hours.
Time-kill tests are carried out to determine the threshold concentrations required for biocide activity in the cooling water samples. Tests are conducted in a 96-deep well block format using a total sample volume of 600 μl for all evaluations. In these samples, no more than 10% of the total volume consists of the biocide and organism solution and all non-matrix additions are normalized for all samples. Each experimental 96-well block contains biocide-treated samples and control samples which lack biocide. The biocides are added to the bacterial suspension at various concentrations and mixed well. The mixture samples are then incubated at 37° C. At several time intervals starting from 1 hour, viable bacteria left in the mixture are determined using the MPN method of serial dilution.
Synergy Index (SI) is calculated as shown below. An SI value of less than 1 indicates synergy.
Ca: Concentration of biocide A required to achieve bacterial concentrations of 2×10^3 CFU/ml or less when used in combination
CA: Concentration of biocide A required to achieve bacterial concentrations of 2×10^3 CFU/ml or less when used alone
Cb: Concentration of biocide B required to achieve bacterial concentrations of 2×10^3 CFU/ml or less when used in combination
CB: Concentration of biocide B required to achieve bacterial concentrations of 2×10^3 CFU/ml or less when used alone

Measured: Concentration of active needed to achieve bacterial concentrations of 2×10^3 CFU/ml or less, biocide used alone

CCCCCCCCCCCCCC[P+](CCCC)(CCCC)CCCC.[Cl-] [TTPC, tributyl tetradecyl phosphonium chloride]
30 ppm: 4 hr
40 ppm: 24 hr | 48 hr | 3 day | 5 day | 7 day

tetrakis(hydroxymethyl)phosphonium sulfate [THPS]
75 ppm: 24 hr | 48 hr | 3 day | 5 day | 7 day
100 ppm: 4 hr

From patent publication US20150018317A1, “BIOCIDAL COMPOSITION” (Dow Global Technologies LLC, priority 2010, published 2015)
